The record followed here is patent US10703764B2, “Benzopiperazine compositions as BET bromodomain inhibitors” (FORMA Therapeutics, Inc., priority 2013, dated 2020).

Where only a bound is given, the exact number is not on record here.

The target in one test is T1, BRD4 BD1 (Homo sapiens, UniProt O60885).
T1 construct: made in house
Description: AlphaScreen binding assay, BRD4 Bromodomain 1. The essentials: (§1)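 An AlphaScreen competition format was used with His-BRD4 BD1 or BD2 and biotin-H4 K5/8/12/16-acetyl peptide, each at matched final levels of 50 nM (BD1) or 100 nM (BD2). Incubation in HEPES/NaCl buffer with 0.1% BSA and 0.01% Triton X-100 ran ≥1 h before IC50 determination.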

In a further test the target is T2, BRD4 BD2 (Homo sapiens, UniProt O60885).
T2 construct: made in house
Nature of the test: AlphaScreen binding assay, BRD4 Bromodomain 2. In short, it runs like this:
as §1
For orientation: Alpha assays give light when donor and acceptor beads are brought close together.

For a further test, the system named is MV4-11 cells. Description: Oncology cell growth assay (3-day proliferation, CellTiter-Glo). It is filed as cell-based. Particulars: Homo sapiens, MV4-11, 72 h, AML cell line MV4-11, 72 hours, compounds grouped by IC50 range, read-out: MV4-11 IC50 (inhibition of proliferation, gIC50). As to the method:
The impact of Example compounds on cancer cell proliferation was determined using the acute myelocytic leukemia (AML) cell line MV4-11 (ATCC) in a 3-day proliferation assay. MV4-11 cells were maintained in RPMI 1640 media supplemented with 10% FBS at 37° C. and an atmosphere of 5% CO2. For compound testing, compound dilutions series were prepared in DMSO via a 3-fold serial dilution from 2 mM to 0.001 mM in 384-well white flat bottom plates. The final compound concentrations in the wells were 10, 3.3, 1.1, 0.37, 0.12, 0.041, 0.013 and 0.0045 μM. MV4-11 cells were plated at a density of 3000 cells/well in final volume of 50 μl culture media and incubated for 72 hours. […] Luminescent signal from the CellTiter-Glo assay was read on an EnVision multilabel plate reader (PerkinElmer). Values for the concentration that inhibited cell growth by 50% (gIC50) between the DMSO control and background control (no cells) were determined using IDBS Activity Base software with a four parameter logistic curve fit by the equation y=A+((B−A)/(1+((C/x)^D))), wherein A denotes the bottom plateau of the curve, B denotes the top plateau of the curve, C denotes the x value at the middle of the curve, D denotes the slope factor, x denotes the original known x values, and y denotes the original known y values. Data was fitted using the Levenburg Marquardt algorithm.
For orientation: In ATP-based viability assays light output follows the ATP content of the culture.

`CC(=O)N1c2ccc(-c3cnn(C4CCOCC4)c3)cc2N(C(=O)OC2CCC(F)(F)CC2)C[C@@H]1C` [Example I-2, (S)-4,4-difluorocyclohexyl 4-acetyl-3-methyl-7-(1-(tetrahydro-2H-pyran-4-yl)-1H-pyrazol-4-yl)-3,4-dihydroquinoxaline-1(2H)-carboxylate]: the IC50 at BRD4 BD1 is 100 to 1000 nM; on BRD4 BD2 it was 50 to 500 nM; with MV4-11 cells, 100 to 500 nM.

With `COc1ccccc1OC(=O)N1C[C@H](C)N(C(C)=O)c2ccc(-c3cnn(C4COC4)c3)cc21` [Example I-3, (S)-2-methoxyphenyl 4-acetyl-3-methyl-7-(1-(oxetan-3-yl)-1H-pyrazol-4-yl)-3,4-dihydroquinoxaline-1(2H)-carboxylate], the results for the IC50 at BRD4 BD1, on BRD4 BD2 and in the test with MV4-11 cells were 100 to 1000 nM, 50 to 500 nM and below 100 nM, respectively.

Regarding `CC(=O)N1c2ccc(-c3cnn(C4CCOCC4)c3)cc2N(C(=O)OC2CC(F)(F)C2)C[C@@H]1C` [Example I-4, (S)-3,3-difluorocyclobutyl 4-acetyl-3-methyl-7-(1-(tetrahydro-2H-pyran-4-yl)-1H-pyrazol-4-yl)-3,4-dihydroquinoxaline-1(2H)-carboxylate], the IC50 at BRD4 BD1 was in the range of 100 to 1000 nM; on BRD4 BD2 it was 50 to 500 nM; in the test on MV4-11 cells it was 100 to 500 nM.

On to `CC(=O)N1c2ccc(-c3ccc(S(C)(=O)=O)cc3)cc2N(C(=O)OC2CC(F)(F)C2)C[C@@H]1C` [Example I-5, (S)-3,3-difluorocyclobutyl 4-acetyl-3-methyl-7-(4-(methylsulfonyl)phenyl)-3,4-dihydroquinoxaline-1(2H)-carboxylate], for which the IC50 was 100 to 1000 nM at BRD4 BD1, 50 to 500 nM on BRD4 BD2 and 100 to 500 nM in the test with MV4-11 cells.

Regarding `CC(=O)N1c2ccc(-c3cnn(C4CC4)c3)cc2N(C(=O)C2CC2)C[C@@H]1C` [Example I-8, (S)-1-(4-(cyclopropanecarbonyl)-6-(1-cyclopropyl-1H-pyrazol-4-yl)-2-methyl-3,4-dihydroquinoxalin-1(2H)-yl)ethanone], the IC50 at BRD4 BD1 was 100 to 1000 nM; at BRD4 BD2, below 50 nM; in the test on MV4-11 cells, 100 to 500 nM.

Regarding `CCOC(=O)N1C[C@H](C)N(C(C)=O)c2ccc(-c3cnn(C4COC4)c3)cc21` [Example I-9, (S)-ethyl 4-acetyl-3-methyl-7-(1-(oxetan-3-yl)-1H-pyrazol-4-yl)-3,4-dihydro-quinoxaline-1(2H)-carboxylate], the IC50 on BRD4 BD1 was 100 to 1000 nM; on BRD4 BD2, 50 to 500 nM; in the test on MV4-11 cells, 100 to 500 nM.

As to `CC(=O)N1c2ccc(-c3cnn(C4COC4)c3)cc2N(C(=O)C2CC2)C[C@@H]1C` [Example I-10, (S)-1-(4-(cyclopropanecarbonyl)-2-methyl-6-(1-(oxetan-3-yl)-1H-pyrazol-4-yl)-3,4-dihydroquinoxalin-1(2H)-yl)ethanone], the IC50 on BRD4 BD1 was in the range of 100 to 1000 nM; at BRD4 BD2, 50 to 500 nM; in the test on MV4-11 cells it was 100 to 500 nM.

For `CC(=O)N1c2ccc(-c3cnn(CCO)c3)cc2N(C(=O)OC(C)C)C[C@@H]1C` [Example I-12, (S)-isopropyl 4-acetyl-7-(1-(2-hydroxyethyl)-1H-pyrazol-4-yl)-3-methyl-3,4-dihydroquinoxaline-1(2H)-carboxylate], the figures for the IC50 on BRD4 BD1, on BRD4 BD2 and in the test on MV4-11 cells were below 100 nM, below 50 nM and 100 to 500 nM, respectively.

For the molecule `CC(=O)N1c2ccc(-c3cn[nH]c3)cc2N(C(=O)c2ccco2)C[C@@H]1C` [Example I-13, (S)-1-(4-(furan-2-carbonyl)-2-methyl-6-(1H-pyrazol-4-yl)-3,4-dihydro-quinoxalin-1(2H)-yl)ethanone], the IC50 is 100 to 1000 nM at BRD4 BD1, below 50 nM on BRD4 BD2 and 100 to 500 nM with MV4-11 cells.

As to `CC(=O)N1c2ccc(-c3cc[nH]n3)cc2N(C(=O)c2ccco2)C[C@@H]1C` [Example I-14, (S)-1-(4-(furan-2-carbonyl)-2-methyl-6-(1H-pyrazol-3-yl)-3,4-dihydro-quinoxalin-1(2H)-yl)ethanone], the IC50 is 1000 to 10000 nM at BRD4 BD1, below 50 nM on BRD4 BD2 and 100 to 500 nM with MV4-11 cells.

As to `CC(=O)N1c2ccc(-c3cnc(C)s3)cc2N(C(=O)c2ccco2)C[C@@H]1C` [Example I-15, (S)-1-(4-(furan-2-carbonyl)-2-methyl-6-(2-methylthiazol-5-yl)-3,4-dihydroquinoxalin-1(2H)-yl)ethanone], the values for the IC50 on BRD4 BD1, at BRD4 BD2 and in the test with MV4-11 cells were 1000 to 10000 nM, below 50 nM and 100 to 500 nM, respectively.

`CC(=O)N1c2ccc(-c3cn[nH]c3)cc2N(C(=O)Oc2ccccc2)C[C@@H]1C` [Example I-16, (S)-phenyl 4-acetyl-3-methyl-7-(1H-pyrazol-4-yl)-3,4-dihydroquinoxaline-1(2H)-carboxylate]: the IC50 is 100 to 1000 nM on BRD4 BD1, below 50 nM at BRD4 BD2 and below 100 nM in the test with MV4-11 cells.

For `CC(=O)N1c2ccc(-c3cnn(C4CCNC(=O)C4)c3)cc2N(C(=O)C2CC2)C[C@@H]1C` (stereo partly drawn) [Example I-167, 4-{4-[(2S)-1-acetyl-4-cyclopropanecarbonyl-2-methyl-1,2,3,4-tetrahydroquinoxalin-6-yl]-1H-pyrazol-1-yl}piperidin-2-one], the IC50 on BRD4 BD1 is 100 to 1000 nM; with MV4-11 cells, 100 to 500 nM.

For the molecule `CC(=O)N1c2ccc(-c3cnn(C4CCS(=O)(=O)CC4)c3)cc2N(C(=O)OCC2CC2)C[C@@H]1C` [Example I-169, cyclopropylmethyl (3S)-4-acetyl-7-[1-(1,1-dioxo-1λ^6-thian-4-yl)-1H-pyrazol-4-yl]-3-methyl-1,2,3,4-tetrahydroquinoxaline-1-carboxylate], the values for the IC50 on BRD4 BD1 and in the test on MV4-11 cells were 100 to 1000 nM and above 500 nM, respectively.

`CC(=O)N1c2ccc(-c3cnn(C4CN[C@@H]4C)c3)cc2N(C(=O)OC2CCC2)C[C@@H]1C` (stereo partly drawn) [Example I-170, cyclobutyl (3S)-4-acetyl-3-methyl-7-{1-[(2R)-2-methylazetidin-3-yl]-1H-pyrazol-4-yl}-1,2,3,4-tetrahydroquinoxaline-1-carboxylate]: the IC50 at BRD4 BD1 was 100 to 1000 nM; in the test with MV4-11 cells it was 100 to 500 nM.

Consider `CC(=O)N1c2ccc(-c3cnn([C@@H]4CCCS(=O)(=O)C4)c3)cc2N(C(=O)OCC2CC2)C[C@@H]1C` [Example I-171, cyclopropylmethyl (3S)-4-acetyl-7-{1-[(3R)-1,1-dioxo-1λ^6-thian-3-yl]-1H-pyrazol-4-yl}-3-methyl-1,2,3,4-tetrahydroquinoxaline-1-carboxylate], for which the results for the IC50 on BRD4 BD1 and in the test with MV4-11 cells were 100 to 1000 nM and above 500 nM, respectively.

Consider `CC(=O)N1c2ccc(-c3cnn([C@H]4CCCS(=O)(=O)C4)c3)cc2N(C(=O)OCC2CC2)C[C@@H]1C` [Example I-172, cyclopropylmethyl (3S)-4-acetyl-7-{1-[(3S)-1,1-dioxo-1λ^6-thian-3-yl]-1H-pyrazol-4-yl}-3-methyl-1,2,3,4-tetrahydroquinoxaline-1-carboxylate], for which the IC50 was 100 to 1000 nM at BRD4 BD1 and above 500 nM in the test with MV4-11 cells.

As to `CC(=O)N1c2ccc(-c3cnn([C@@H]4CCCS(=O)(=O)C4)c3)cc2N(C(=O)OC2CCC2)C[C@@H]1C` [Example I-173, cyclobutyl (3S)-4-acetyl-7-{1-[(3R)-1,1-dioxo-1λ^6-thian-3-yl]-1H-pyrazol-4-yl}-3-methyl-1,2,3,4-tetrahydroquinoxaline-1-carboxylate], the values for the IC50 at BRD4 BD1 and in the test with MV4-11 cells were 100 to 1000 nM and below 100 nM, respectively.

As to `CC(=O)N1c2ccc(-c3cnn([C@H]4CCCS(=O)(=O)C4)c3)cc2N(C(=O)OC2CCC2)C[C@@H]1C` [Example I-174, cyclobutyl (3S)-4-acetyl-7-{1-[(3S)-1,1-dioxo-1λ^6-thian-3-yl]-1H-pyrazol-4-yl}-3-methyl-1,2,3,4-tetrahydroquinoxaline-1-carboxylate], the IC50 on BRD4 BD1 and with MV4-11 cells was below 100 nM in each case.

Take `CC(=O)N1c2ccc(-c3cnn(C4CCNC(=O)C4)c3)cc2N(C(=O)OC2CCC2)C[C@@H]1C` (stereo partly drawn) [Example I-175, cyclobutyl (3S)-4-acetyl-3-methyl-7-[1-(2-oxopiperidin-4-yl)-1H-pyrazol-4-yl]-1,2,3,4-tetrahydroquinoxaline-1-carboxylate]: the IC50 at BRD4 BD1 and with MV4-11 cells was below 100 nM in each case.

Turning to `CC(=O)N1c2ccc(-c3cnn(C4CN[C@H]4C)c3)cc2N(C(=O)OC2CCC2)C[C@@H]1C` (stereo partly drawn) [Example I-178, cyclobutyl (3S)-4-acetyl-3-methyl-7-{1-[(2S)-2-methylazetidin-3-yl]-1H-pyrazol-4-yl}-1,2,3,4-tetrahydroquinoxaline-1-carboxylate], the values for the IC50 at BRD4 BD1 and with MV4-11 cells were 100 to 1000 nM and 100 to 500 nM, respectively.

Regarding `CC(=O)N1c2ccc(-c3ccc(C(=O)NCCN)cc3)cc2N(C(=O)OC(C)C)C[C@@H]1C` [Example I-480], the IC50 on BRD4 BD1 fell in the range of 100 to 1000 nM; with MV4-11 cells, 100 to 500 nM.

Consider `CC(C)OC(=O)N1C[C@H](C)N(C(=O)C2CC2)c2ccc(-c3ccc(C(=O)N(C)CC(=O)N(C)C)cc3)cc21` [Example I-560], for which the IC50 at BRD4 BD1 is 100 to 1000 nM; with MV4-11 cells it was 100 to 500 nM.
